Data as given in PubChem BioAssay (NCI).
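Assay format: 96-well plates, 48-hour exposure. TGI is the concentration that stops growth completely.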

Tests used:
Assay in all cases: DTP human tumour cell line panel, 48 h
OVCAR-5 ovarian = system: OVCAR-5 ovarian
LOX IMVI melanoma = system: LOX IMVI melanoma
M19-MEL melanoma = system: M19-MEL melanoma
SK-MEL-2 melanoma = system: SK-MEL-2 melanoma
NCI-H226 lung = system: NCI-H226 lung
MALME-3M melanoma = system: MALME-3M melanoma
M14 melanoma = system: M14 melanoma
OVCAR-3 ovarian = system: OVCAR-3 ovarian
XF 498 CNS = system: XF 498 CNS
HL-60(TB) leukemia = system: HL-60(TB) leukemia
SW-620 colon = system: SW-620 colon
OVCAR-8 ovarian = system: OVCAR-8 ovarian
DMS 273 small cell lung = system: DMS 273 small cell lung
KM12 colon = system: KM12 colon
HT29 colon = system: HT29 colon
MOLT-4 leukemia = system: MOLT-4 leukemia
HCC-2998 colon = system: HCC-2998 colon
NCI-H23 lung = system: NCI-H23 lung
NCI-H460 lung = system: NCI-H460 lung
HCT-15 colon = system: HCT-15 colon
LXFL 529 NSCLC = system: LXFL 529 NSCLC
HOP-18 NSCLC = system: HOP-18 NSCLC
SR leukemia = system: SR leukemia
UACC-257 melanoma = system: UACC-257 melanoma
UACC-62 melanoma = system: UACC-62 melanoma
KM20L2 colon = system: KM20L2 colon
SK-MEL-5 melanoma = system: SK-MEL-5 melanoma
CAKI-1 renal = system: CAKI-1 renal
UO-31 renal = system: UO-31 renal
SF-295 CNS = system: SF-295 CNS
DMS 114 small cell lung = system: DMS 114 small cell lung
U251 CNS = system: U251 CNS
TK-10 renal = system: TK-10 renal
A498 renal = system: A498 renal
SF-539 CNS = system: SF-539 CNS
HOP-92 NSCLC = system: HOP-92 NSCLC
SNB-19 CNS = system: SNB-19 CNS
HCT-116 colon = system: HCT-116 colon
786-0 renal = system: 786-0 renal
OVCAR-4 ovarian = system: OVCAR-4 ovarian
RXF-631 renal = system: RXF-631 renal
CCRF-CEM leukemia = system: CCRF-CEM leukemia
EKVX NSCLC = system: EKVX NSCLC
SK-MEL-28 melanoma = system: SK-MEL-28 melanoma
SN12C renal = system: SN12C renal
ACHN renal = system: ACHN renal
RPMI-8226 leukemia = system: RPMI-8226 leukemia
DLD-1 colon = system: DLD-1 colon
RXF 393 renal = system: RXF 393 renal
A549 NSCLC = system: A549 NSCLC
SNB-75 CNS = system: SNB-75 CNS
K-562 leukemia = system: K-562 leukemia
SK-OV-3 ovarian = system: SK-OV-3 ovarian
IGROV1 ovarian = system: IGROV1 ovarian
SNB-78 CNS = system: SNB-78 CNS
SF-268 CNS = system: SF-268 CNS
COLO 205 colon = system: COLO 205 colon
NCI-H522 lung = system: NCI-H522 lung
HOP-62 NSCLC = system: HOP-62 NSCLC

Measured: TGI

CC(=O)N(C)C=C1C(=O)N(C)C(=O)N(C)C1=O
> 100 µM: OVCAR-5 ovarian | LOX IMVI melanoma | M19-MEL melanoma | SK-MEL-2 melanoma | NCI-H226 lung | MALME-3M melanoma | M14 melanoma | OVCAR-3 ovarian | XF 498 CNS | HL-60(TB) leukemia | SW-620 colon | OVCAR-8 ovarian | DMS 273 small cell lung | KM12 colon | HT29 colon | MOLT-4 leukemia | HCC-2998 colon | NCI-H23 lung | NCI-H460 lung | HCT-15 colon | LXFL 529 NSCLC | HOP-18 NSCLC | SR leukemia | UACC-257 melanoma | UACC-62 melanoma | KM20L2 colon | SK-MEL-5 melanoma | CAKI-1 renal | UO-31 renal | SF-295 CNS | DMS 114 small cell lung | U251 CNS | TK-10 renal | A498 renal | SF-539 CNS | HOP-92 NSCLC | SNB-19 CNS | HCT-116 colon | 786-0 renal | OVCAR-4 ovarian | RXF-631 renal | CCRF-CEM leukemia | EKVX NSCLC | SK-MEL-28 melanoma | SN12C renal | ACHN renal | RPMI-8226 leukemia | DLD-1 colon | RXF 393 renal | A549 NSCLC | SNB-75 CNS | K-562 leukemia

CC#C[C@@]1(O)CCCCC1O (stereo partly specified)
> 100 µM: LOX IMVI melanoma | M19-MEL melanoma | SK-MEL-2 melanoma | NCI-H226 lung | MALME-3M melanoma | M14 melanoma | OVCAR-3 ovarian | XF 498 CNS | SK-OV-3 ovarian | HL-60(TB) leukemia | SW-620 colon | OVCAR-8 ovarian | DMS 273 small cell lung | KM12 colon | HT29 colon | MOLT-4 leukemia | HCC-2998 colon | NCI-H23 lung | NCI-H460 lung | IGROV1 ovarian | HCT-15 colon | HOP-18 NSCLC | UACC-257 melanoma | UACC-62 melanoma | KM20L2 colon | SK-MEL-5 melanoma | UO-31 renal | SF-295 CNS | DMS 114 small cell lung | U251 CNS | TK-10 renal | A498 renal | SF-539 CNS | HOP-92 NSCLC | SNB-19 CNS | HCT-116 colon | 786-0 renal | OVCAR-4 ovarian | SNB-78 CNS | SF-268 CNS | RXF-631 renal | CCRF-CEM leukemia | EKVX NSCLC | SK-MEL-28 melanoma | SN12C renal | COLO 205 colon | ACHN renal | RPMI-8226 leukemia | NCI-H522 lung | RXF 393 renal | A549 NSCLC | HOP-62 NSCLC | SNB-75 CNS | K-562 leukemia
